Reference: patent publication US12016864B2, “LOX enzyme inhibiting methods and compositions” (ANOVIA BIOSCIENCES, INC., priority 2021, dated 2024)

Target: T1, Recombinant human LOXL2 (lysyl oxidase like 2) (Homo sapiens, UniProt Q9Y4K0)
T1 construct: purchased R&D systems
T1 sequence (Q9Y4K0 26-774): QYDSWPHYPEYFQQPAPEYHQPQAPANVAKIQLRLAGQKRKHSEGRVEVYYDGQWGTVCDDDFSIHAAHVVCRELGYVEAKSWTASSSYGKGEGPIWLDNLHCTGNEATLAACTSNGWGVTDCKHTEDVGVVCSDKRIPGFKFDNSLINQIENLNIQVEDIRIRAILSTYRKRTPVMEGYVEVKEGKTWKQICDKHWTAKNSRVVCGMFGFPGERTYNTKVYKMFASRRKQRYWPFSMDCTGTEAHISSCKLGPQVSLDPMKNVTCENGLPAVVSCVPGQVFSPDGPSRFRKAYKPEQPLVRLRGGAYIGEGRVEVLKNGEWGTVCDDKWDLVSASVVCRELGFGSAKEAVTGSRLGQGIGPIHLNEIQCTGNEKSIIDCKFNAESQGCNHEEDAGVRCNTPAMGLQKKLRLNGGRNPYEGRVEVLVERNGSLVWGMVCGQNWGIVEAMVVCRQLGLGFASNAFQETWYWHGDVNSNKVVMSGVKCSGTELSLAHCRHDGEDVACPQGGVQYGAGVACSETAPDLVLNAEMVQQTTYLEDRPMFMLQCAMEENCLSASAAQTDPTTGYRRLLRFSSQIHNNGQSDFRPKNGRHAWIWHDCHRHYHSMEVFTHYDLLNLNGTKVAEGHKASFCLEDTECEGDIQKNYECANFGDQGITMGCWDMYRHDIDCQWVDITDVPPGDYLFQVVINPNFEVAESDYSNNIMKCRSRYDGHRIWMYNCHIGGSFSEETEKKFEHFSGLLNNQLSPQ
Experiment: LOXL2 inhibition assay, fluorometric (cadaverine / HRP / Amplex Red)
Format: biochemical
Settings: recombinant human LOXL2 130 nM; 30 min preincubation at 37° C.; 2.5 mM cadaverine; read-out: Activity Range LOXL2
Method: The ability of compounds to inhibit one or more of the lysyl oxidases LOXL2 and/or LOXL3 was determined using a fluorometric assay. This assay measures the activity of lysyl oxidases by coupling the reaction with horseradish peroxidase-catalyzed […]. The activity assay protocol uses cadaverine as substrate that releases hydrogen peroxide upon transformation by the specific LOX family enzyme present in the sample. Hydrogen peroxide is in turn detected using a red fluorescence substrate for HRP-coupled reactions (Amplex Red Enzyme Assays, Thermo Scientific Fisher). This leads to increase in fluorescence that can be easily detected at Ex/Em=540/590 nm in a fluorescence microplate reader.
Recombinant human LOXL2 (lysyl oxidase like 2) and recombinant human LOXL3 (lysyl oxidase like 3) were purchased from R&D systems and assays were performed in 1.2 M urea, 50 mM sodium borate buffer pH 8.0, and 10 mM CaCl.
5 μl of freshly prepared reaction buffer were delivered to reaction wells. Compounds were resuspended in 100% DMSO at 10 mM and delivered into buffer using acoustic technology (Echo550; nanoliter range). A 3× solution of LOXL2 or LOXL3 in reaction buffer was prepared (“enzyme solution”) and 5 μL of enzyme solution was added into the reaction wells. Buffer only was added to column 1 for no protein control. Reactions were incubated for 30 minutes at 37° C. A 3× mixture of cadaverine, Amplex Red, and HRP (“Substrate/Detection Mix) was prepared and subsequently 5 μL of the mixture added to each reaction well. Progress of reactions was monitored for 60 minutes at 37° C. using Clariostar plate reader (ex 530-12, ems 600-40). For all activity assays, pan-LOX inhibitor CCT365623 (Tang et al, 2017) and LOXL2/LOXL3 inhibitor PAT-1251 (PharmaKea) were included as standards.
For the data analysis, the slope of the linear portion of the progress curve was calculated using Clariostar software. Typical analysis interval was between 8-30 min, but varied between experiments. The background-subtracted signals (No protein wells are considered as background) were converted to % activity relative to DMSO controls. Data was analyzed using GraphPad Prism 4 with “sigmoidal dose-response (variable slope)”; 4 parameters with Hill Slope. Constraints: Bottom=Constant equal to 0. Top=Must be less than 120.

SMILES | IC50 [nM]
NCc1ccnc(OC[C@@H]2C[C@H](c3ccccc3F)CN2S(=O)(=O)N2CCOCC2)c1 (racemic) [Example 211, cis-(2-((4-(2-Fluorophenyl)-1-(morpholinosulfonyl)pyrrolidin-2-yl)methoxy)pyridin-4-yl)methanamine; trifluoroacetic acid] | ≤ 500
NCc1cccc(OC[C@@H]2C[C@H](c3ccccc3F)CN2S(=O)(=O)N2CCS(=O)(=O)CC2)c1 (racemic) [Example 217, cis-4-((2-((3-(Aminomethyl)phenoxy)methyl)-4-(2-fluorophenyl)pyrrolidin-1-yl)sulfonyl)thiomorpholine 1,1-dioxide 2,2,2-trifluoroacetate] | 500 to 1000
NCc1ccnc(S(=O)(=O)C[C@@H]2C[C@H](c3ccccc3)CN(S(=O)(=O)N3CCOCC3)C2)c1 (racemic) [Example 219, cis-(2-(((1-(Morpholinosulfonyl)-5-phenylpiperidin-3-yl)methyl)sulfonyl)pyridin-4-yl)methanamine 2,2,2-trifluoroacetate] | ≤ 500
NCc1ccc(S(=O)(=O)C[C@@H]2C[C@H](c3ccccc3)CN(S(=O)(=O)N3CCOCC3)C2)s1 (racemic) [Example 222, cis-(5-(((1-(Morpholinosulfonyl)-5-phenylpiperidin-3-yl)methyl)sulfonyl)thiophen-2-yl)methanamine 2,2,2-trifluoroacetate] | ≤ 500

More lines, now with the values ahead:

IC50 [nM] | SMILES
≤ 500 | NCc1ccnc(S(=O)(=O)C[C@@H]2C[C@H](c3ccccc3F)CN2S(=O)(=O)N2CCS(=O)(=O)CC2)c1 (racemic) [Example 205, cis-4-((2-(((4-(Aminomethyl)pyridin-2-yl)sulfonyl)methyl)-4-(2-fluorophenyl)pyrrolidin-1-yl)sulfonyl)thiomorpholine 1,1-dioxide 2,2,2-trifluoroacetate]
≤ 500 | NCc1ccc(S(=O)(=O)C[C@@H]2C[C@H](c3ccccc3F)CN2S(=O)(=O)N2CCS(=O)(=O)CC2)s1 (racemic) [Example 209, cis-4-((2-(((5-(Aminomethyl)thiophen-2-yl)sulfonyl)methyl)-4-(2-fluorophenyl)pyrrolidin-1-yl)sulfonyl)thiomorpholine 1,1-dioxide 2,2,2-trifluoroacetate]
≤ 500 | NCc1ccnc(OC[C@@H]2C[C@H](c3ccccc3F)CN2S(=O)(=O)N2CCS(=O)(=O)CC2)c1 (racemic) [Example 213, cis-4-((2-(((4-(Aminomethyl)pyridin-2-yl)oxy)methyl)-4-(2-fluorophenyl)pyrrolidin-1-yl)sulfonyl)thiomorpholine 1,1-dioxide 2,2,2-trifluoroacetate]
500 to 1000 | NCc1cccc(OC[C@@H]2C[C@H](c3ccccc3F)CN2S(=O)(=O)N2CCOCC2)c1 (racemic) [Example 215, cis-(3-((4-(2-Fluorophenyl)-1-(morpholinosulfonyl)pyrrolidin-2-yl)methoxy)phenyl)methanamine]
≤ 500 | NCc1ccnc(S(=O)(=O)C[C@H]2C[C@H](c3ccccc3)CN(S(=O)(=O)N3CCOCC3)C2)c1 (racemic) [Example 219T, trans-(2-(((1-(Morpholinosulfonyl)-5-phenylpiperidin-3-yl)methyl)sulfonyl)pyridin-4-yl)methanamine 2,2,2-trifluoroacetate]
≤ 500 | NCc1ccnc(OC[C@@H]2C[C@H](c3ccccc3)CN(S(=O)(=O)N3CCOCC3)C2)c1 (racemic) [Example 220, cis-(2-((1-(Morpholinosulfonyl)-5-phenylpiperidin-3-yl)methoxy)pyridin-4-yl)methanamine 2,2,2-trifluoroacetate]
≤ 500 | NCc1cccc(OC[C@@H]2C[C@H](c3ccccc3)CN(S(=O)(=O)N3CCOCC3)C2)c1 (racemic) [Example 221, cis-(3-((1-(Morpholinosulfonyl)-5-phenylpiperidin-3-yl)methoxy)phenyl)methanamine 2,2,2-trifluoroacetate]
